# Measured values as given in the supplement of paper PMC11061612.
# What was measured:
# Assay in all cases: combination Emax (second highest fraction inhibited in the dose matrix, 72 h); higher = more inhibition; extreme values may be limits of the assay
# [1] = tested on: HCC-78 (Lung Adenocarcinoma)
# In short: (§1)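 After 24 hours at 37°C and 5% CO2 in 1536-well plates, cells in DMEM/F12 or RPMI plus 10% FBS received two-drug dose matrices for 72 hours. Viability came from CellTiter-Glo 2.0 luminescence and was scaled as inhibition, anchored at 0 by vehicle wells and at 1 by blank wells. Combination Emax is taken as the second-highest inhibition in the matrix, and Bliss excess as the observed combination effect less EA + EB − EA·EB, with EA and EB the single-agent effects.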
# [2] = tested on: MFE-296 (Endometrial Carcinoma)
# In short: as §1
# NB10 (Neuroblastoma) = tested on: NB10 (Neuroblastoma)
# In short: as §1
# [3] = tested on: EC-GI-10 (Esophageal Squamous Cell Carcinoma)
# In short: as §1
# [4] = tested on: TE-15 (Esophageal Squamous Cell Carcinoma)
# In short: as §1
# [5] = tested on: Hs-578-T (Breast Carcinoma)
# In short: as §1
# [6] = tested on: LS-180 (Colorectal Carcinoma)
# In short: as §1
# [7] = tested on: Calu-3 (Lung Adenocarcinoma)
# In short: as §1
# [8] = tested on: DoTc2-4510 (Cervical Carcinoma)
# In short: as §1
# [9] = tested on: KP-1N (Pancreatic Carcinoma)
# In short: as §1
# [10] = tested on: CCRF-CEM (T-Lymphoblastic Leukemia)
# In short: as §1
# [11] = tested on: MDA-MB-361 (Breast Carcinoma)
# In short: as §1
Structure (SMILES),combination Emax [1],combination Emax [2],combination Emax (NB10 (Neuroblastoma)),combination Emax [3],combination Emax [4],combination Emax [5],combination Emax [6],combination Emax [7],combination Emax [8],combination Emax [9],combination Emax [10],combination Emax [11]
"Cc1cc2ncnn2cc1Nc1ncc2c(n1)n(C1CCOCC1)c(=O)n2C [AZD7648] + C[C@@H]1COCCN1C2=NC(=NC(=C2)C3(CC3)[S@](=N)(=O)C)C4=C5C=CNC5=NC=C4 [AZD6738] (first compound max 10 µM, 7x7, partner max 10 µM)",0.635,0.33,0.801,0.517,0.713,0.912,0.754,0.291,0.746,0.252,0.997,0.884
"Cc1c2c(nn1C)CSCc1cc(n(C)n1)CSc1cc(c3ccccc3c1)OCCCc1c(C(=O)O)n(C)c3c-2c(Cl)ccc13 [AZD5991] + C1CN(CCC1(C(=O)N[C@@H](CCO)C2=CC=C(C=C2)Cl)N)C3=NC=NC4=C3C=CN4 [Capivasertib] (first compound max 1 µM, 7x7, partner max 3 µM)",0.228,0.825,0.194,0.775,0.36,0.747,0.315,0.182,0.355,0.249,0.637,0.718
"Cc1cc2ncnn2cc1Nc1ncc2c(n1)n(C1CCOCC1)c(=O)n2C [AZD7648] + CCN(CCO)CCCOc1ccc2c(Nc3cc(CC(=O)Nc4cccc(F)c4)[nH]n3)ncnc2c1 [AZD2811] (first compound max 10 µM, 7x7, partner max 1 µM)",0.342,0.147,0.335,0.44,0.283,0.623,0.388,0.235,0.301,0.134,1,0.61
"C[C@@H](c1ccc2nccn2c1)n1nnc2ncc(-c3cnn(C)c3)nc21 [Savolitinib] + CC1(C)CCC(CN2CCN(c3ccc(C(=O)NS(=O)(=O)c4ccc(NCC5CCOCC5)c([N+](=O)[O-])c4)c(Oc4cnc5[nH]ccc5c4)c3)CC2)=C(c2ccc(Cl)cc2)C1 [Venetoclax] (first compound max 1 µM, 7x7, partner max 1 µM)",0.145,0.0764,0.149,0.116,0.287,0.312,0.205,0.153,0.182,0.13,0.124,0.119
"COc1cc2ncnc(Nc3ccc(F)c(Cl)c3)c2cc1OCCCN1CCOCC1 [Gefitinib] + CC(C)n1c(=O)n(C)c2cnc3cc(F)c(-c4ccc(OCCCN5CCCCC5)nc4)cc3c21 [AZD1390] (first compound max 10 µM, 7x7, partner max 0.3 µM)",0.133,0.0821,0.0716,0.642,0.762,0.319,0.292,0.738,0.297,0.004,0.054,0.207
"CCc1c2c(nc3ccc(O)cc13)-c1cc3c(c(=O)n1C2)COC(=O)[C@]3(O)CC [SN-38] + CN(C)CCCOc1ccc(-c2ccc3ncc4c(c3c2)n(C2CCOCC2)c(=O)n4C)cn1 [AZD0156] (first compound max 0.3 µM, 7x7, partner max 1 µM)",0.924,0.496,0.829,0.776,0.819,0.635,0.713,0.319,0.972,0.627,1,0.397
"NC1(C(=O)N[C@@H](CCO)c2ccc(Cl)cc2)CCN(c2ncnc3[nH]ccc23)CC1 [Capivasertib] + CC(=O)c1c(C)c2cnc(Nc3ccc(N4CCNCC4)cn3)nc2n(C2CCCC2)c1=O [Palbociclib] (first compound max 10 µM, 7x7, partner max 10 µM)",0.344,0.493,0.369,0.665,0.568,0.676,0.61,0.396,0.181,0.451,0.798,0.546
"COc1nnc2ccc(N3CCC(c4ccc(OCCN5CCN(C)C(=O)[C@H]5C)cc4)CC3)nn12 [AZD5153] + Cc1c2c(nn1C)CSCc1cc(n(C)n1)CSc1cc(c3ccccc3c1)OCCCc1c(C(=O)O)n(C)c3c-2c(Cl)ccc13 [AZD5991] (first compound max 1 µM, 7x7, partner max 1 µM)",0.522,0.878,0.651,0.671,0.627,0.896,0.585,0.677,0.362,0.582,0.858,0.865
"Cc1cc2ncnn2cc1Nc1ncc2c(n1)n(C1CCOCC1)c(=O)n2C [AZD7648] + C=CCn1c(=O)c2cnc(Nc3ccc(N4CCN(C)CC4)cc3)nc2n1-c1cccc(C(C)(C)O)n1 [AZD1775] (first compound max 10 µM, partner max 1 µM)",0.432,0.295,0.594,0.78,0.565,0.77,0.5,0.242,0.531,0.349,1,0.824
"Cc1c2c(nn1C)CSCc1cc(n(C)n1)CSc1cc(c3ccccc3c1)OCCCc1c(C(=O)O)n(C)c3c-2c(Cl)ccc13 [AZD5991] + CC1(C)CCC(CN2CCN(c3ccc(C(=O)NS(=O)(=O)c4ccc(NCC5CCOCC5)c([N+](=O)[O-])c4)c(Oc4cnc5[nH]ccc5c4)c3)CC2)=C(c2ccc(Cl)cc2)C1 [Venetoclax] (first compound max 1 µM, 7x7, partner max 1 µM)",0.158,0.593,0.481,0.448,0.173,0.774,0.191,0.135,0.287,0.119,0.787,0.889
"Cc1c2c(nn1C)CSCc1cc(n(C)n1)CSc1cc(c3ccccc3c1)OCCCc1c(C(=O)O)n(C)c3c-2c(Cl)ccc13 [AZD5991] + CCN(CCO)CCCOc1ccc2c(Nc3cc(CC(=O)Nc4cccc(F)c4)[nH]n3)ncnc2c1 [AZD2811] (first compound max 1 µM, 7x7, partner max 1 µM)",0.31,0.45,0.405,0.891,0.826,0.81,0.342,0.17,0.287,0.234,0.999,0.913
"CN(CCO)CC[C@H](CSc1ccccc1)Nc1ccc(S(=O)(=O)NC(=O)c2ccc(N3CCC([C@@H](O)c4ccccc4-c4ccc(Cl)cc4)CC3)cc2)cc1S(=O)(=O)C(F)(F)F [AZD4320] + C[C@@H]1COCCN1C2=NC(=NC(=C2)C3(CC3)[S@](=N)(=O)C)C4=C5C=CNC5=NC=C4 [AZD6738] (first compound max 1 µM, 7x7, partner max 10 µM)",0.637,0.559,0.689,0.647,0.908,0.991,0.739,0.284,0.912,0.269,1,0.918
"CC1(C)CCC(CN2CCN(c3ccc(C(=O)NS(=O)(=O)c4ccc(NCC5CCOCC5)c([N+](=O)[O-])c4)c(Oc4cnc5[nH]ccc5c4)c3)CC2)=C(c2ccc(Cl)cc2)C1 [Venetoclax] + C[C@@H]1COCCN1C2=NC(=NC(=C2)C3(CC3)[S@](=N)(=O)C)C4=C5C=CNC5=NC=C4 [AZD6738] (first compound max 1 µM, 7x7, partner max 10 µM)",0.661,0.387,0.849,0.608,0.796,0.909,0.728,0.265,0.603,0.235,1,0.884
"CC(=O)c1c(C)c2cnc(Nc3ccc(N4CCNCC4)cn3)nc2n(C2CCCC2)c1=O [Palbociclib] + Cc1c2c(nn1C)CSCc1cc(n(C)n1)CSc1cc(c3ccccc3c1)OCCCc1c(C(=O)O)n(C)c3c-2c(Cl)ccc13 [AZD5991] (first compound max 10 µM, 7x7, partner max 1 µM)",0.251,0.287,0.369,0.543,0.435,0.372,0.521,0.219,0.215,0.212,0.732,0.586
"CN(C)CCCOc1ccc(-c2ccc3ncc4c(c3c2)n(C2CCOCC2)c(=O)n4C)cn1 [AZD0156] + CCN(CCO)CCCOc1ccc2c(Nc3cc(CC(=O)Nc4cccc(F)c4)[nH]n3)ncnc2c1 [AZD2811] (first compound max 1 µM, 7x7, partner max 1 µM)",0.159,0.0192,0.315,0.471,0.0454,0.565,0.261,0.061,0.186,0.293,0.983,0.456
"CC1(C)CCC(CN2CCN(c3ccc(C(=O)NS(=O)(=O)c4ccc(NCC5CCOCC5)c([N+](=O)[O-])c4)c(Oc4cnc5[nH]ccc5c4)c3)CC2)=C(c2ccc(Cl)cc2)C1 [Venetoclax] + C1CN(CCC1(C(=O)N[C@@H](CCO)C2=CC=C(C=C2)Cl)N)C3=NC=NC4=C3C=CN4 [Capivasertib] (first compound max 1 µM, 7x7, partner max 3 µM)",0.276,0.37,0.139,0.426,0.401,0.812,0.287,0.174,0.245,0.172,0.957,0.474
"CC1(C)CCC(CN2CCN(c3ccc(C(=O)NS(=O)(=O)c4ccc(NCC5CCOCC5)c([N+](=O)[O-])c4)c(Oc4cnc5[nH]ccc5c4)c3)CC2)=C(c2ccc(Cl)cc2)C1 [Venetoclax] + COc1cc(Nc2ncc3c(n2)-c2ccc(Cl)cc2C(c2c(F)cccc2OC)=NC3)ccc1C(=O)O [Alisertib] (first compound max 1 µM, 7x7, partner max 10 µM)",0.475,0.225,0.995,0.554,0.686,0.851,0.489,0.171,0.421,0.357,0.992,0.773
